Where two headings read alike, the source gives them in different places.
What was measured:
α4β2 nAChR Subtype = α4β2 nAChR Subtype (Rattus norvegicus, UniProt P09483+P12390); test: Radioligand binding at α4β2 nAChR subtype, inhibition of [3H]nicotine binding, rat cerebral cortex membranes; conditions: [3H]nicotine 5 nM
Experimental: The [^3H]nicotine (Specific Activity=81.5 Ci/mmol) was obtained from NEN Research Products. The binding of [^3H]nicotine was measured using a 3 h incubation at 4° C. […] Each filter was washed with ice-cold buffer (3×1 mL).
Each concentration was replicated in triplicate.

Human α4β2 = Human α4β2 (Homo sapiens, UniProt P17787+P43681); test: Binding at human α4β2 (Ki); method not described
α7 nAChR Subtype = α7 nAChR Subtype (Rattus norvegicus, UniProt Q05941); test: Radioligand binding at α7 nAChR subtype, inhibition of [3H]MLA binding, rat hippocampus membranes (HTS at 5 μM, then Ki); conditions: for inhibition at 5 µM: read-out: α7 HTS outcome (α7 Ki)
[1] = read-out: α7 Ki, [3H]MLA 5 nM, rat hippocampus

α7 nAChR Subtype, sequence (Q05941 23-502): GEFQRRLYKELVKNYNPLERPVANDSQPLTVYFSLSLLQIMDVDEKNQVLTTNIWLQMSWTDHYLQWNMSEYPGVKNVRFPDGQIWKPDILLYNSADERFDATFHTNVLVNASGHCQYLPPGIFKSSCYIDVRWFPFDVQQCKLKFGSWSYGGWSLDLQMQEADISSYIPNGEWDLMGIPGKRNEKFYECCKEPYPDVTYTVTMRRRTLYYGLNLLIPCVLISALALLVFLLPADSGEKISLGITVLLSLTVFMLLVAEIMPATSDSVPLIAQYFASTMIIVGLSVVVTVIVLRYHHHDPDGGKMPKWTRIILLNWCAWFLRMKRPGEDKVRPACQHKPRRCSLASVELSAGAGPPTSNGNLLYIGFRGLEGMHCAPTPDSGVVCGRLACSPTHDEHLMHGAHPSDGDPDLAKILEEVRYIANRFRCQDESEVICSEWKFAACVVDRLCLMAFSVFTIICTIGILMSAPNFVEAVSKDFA
α4β2 nAChR Subtype, sequence (P09483 31-630): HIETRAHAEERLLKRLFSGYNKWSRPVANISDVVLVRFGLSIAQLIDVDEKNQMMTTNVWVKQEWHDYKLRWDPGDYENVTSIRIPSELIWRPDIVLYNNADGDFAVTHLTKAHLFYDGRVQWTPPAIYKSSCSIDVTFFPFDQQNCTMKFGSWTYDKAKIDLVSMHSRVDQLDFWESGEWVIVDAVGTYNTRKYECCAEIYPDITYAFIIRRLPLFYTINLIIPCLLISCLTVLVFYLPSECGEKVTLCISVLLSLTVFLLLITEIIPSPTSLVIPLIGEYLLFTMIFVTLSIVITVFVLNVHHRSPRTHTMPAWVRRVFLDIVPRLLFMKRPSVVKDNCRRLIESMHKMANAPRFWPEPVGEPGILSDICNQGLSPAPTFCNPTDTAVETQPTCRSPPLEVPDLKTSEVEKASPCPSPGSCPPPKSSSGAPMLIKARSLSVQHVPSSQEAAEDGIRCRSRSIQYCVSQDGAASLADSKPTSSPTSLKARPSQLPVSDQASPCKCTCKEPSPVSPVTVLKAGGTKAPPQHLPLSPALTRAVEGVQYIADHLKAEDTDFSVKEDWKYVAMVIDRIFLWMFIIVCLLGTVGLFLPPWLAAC
α4β2 nAChR Subtype, sequence (P12390 25-500): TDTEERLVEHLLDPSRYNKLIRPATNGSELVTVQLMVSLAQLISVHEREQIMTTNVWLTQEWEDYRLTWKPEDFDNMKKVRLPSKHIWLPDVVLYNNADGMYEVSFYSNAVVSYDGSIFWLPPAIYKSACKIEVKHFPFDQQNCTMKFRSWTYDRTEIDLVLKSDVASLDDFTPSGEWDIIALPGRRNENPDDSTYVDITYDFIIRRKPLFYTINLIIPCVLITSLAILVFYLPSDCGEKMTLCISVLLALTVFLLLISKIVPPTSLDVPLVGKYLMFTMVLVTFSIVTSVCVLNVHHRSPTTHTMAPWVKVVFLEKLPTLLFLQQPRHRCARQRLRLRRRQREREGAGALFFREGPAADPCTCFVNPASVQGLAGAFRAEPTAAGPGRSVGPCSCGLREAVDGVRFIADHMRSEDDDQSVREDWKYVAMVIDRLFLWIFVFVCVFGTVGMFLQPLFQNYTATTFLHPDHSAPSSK
Human α4β2, sequence (P43681 29-627 limits assumed): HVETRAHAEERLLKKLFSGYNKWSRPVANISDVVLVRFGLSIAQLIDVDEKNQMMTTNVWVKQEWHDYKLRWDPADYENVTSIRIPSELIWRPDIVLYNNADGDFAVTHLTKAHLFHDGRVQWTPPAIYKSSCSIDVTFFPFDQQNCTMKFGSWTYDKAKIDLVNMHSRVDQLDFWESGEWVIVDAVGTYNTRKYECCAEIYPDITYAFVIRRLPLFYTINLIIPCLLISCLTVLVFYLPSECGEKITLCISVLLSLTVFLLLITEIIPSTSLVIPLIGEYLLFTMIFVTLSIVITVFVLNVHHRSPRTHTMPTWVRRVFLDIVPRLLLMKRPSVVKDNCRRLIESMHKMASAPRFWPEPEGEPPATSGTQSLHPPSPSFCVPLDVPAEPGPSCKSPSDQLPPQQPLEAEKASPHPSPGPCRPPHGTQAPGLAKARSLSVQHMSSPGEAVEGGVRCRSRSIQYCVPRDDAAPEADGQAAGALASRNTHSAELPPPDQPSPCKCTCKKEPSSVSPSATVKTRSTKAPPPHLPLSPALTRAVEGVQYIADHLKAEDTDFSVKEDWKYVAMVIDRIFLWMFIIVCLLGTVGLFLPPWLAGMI
Human α4β2, sequence (P17787 26-502): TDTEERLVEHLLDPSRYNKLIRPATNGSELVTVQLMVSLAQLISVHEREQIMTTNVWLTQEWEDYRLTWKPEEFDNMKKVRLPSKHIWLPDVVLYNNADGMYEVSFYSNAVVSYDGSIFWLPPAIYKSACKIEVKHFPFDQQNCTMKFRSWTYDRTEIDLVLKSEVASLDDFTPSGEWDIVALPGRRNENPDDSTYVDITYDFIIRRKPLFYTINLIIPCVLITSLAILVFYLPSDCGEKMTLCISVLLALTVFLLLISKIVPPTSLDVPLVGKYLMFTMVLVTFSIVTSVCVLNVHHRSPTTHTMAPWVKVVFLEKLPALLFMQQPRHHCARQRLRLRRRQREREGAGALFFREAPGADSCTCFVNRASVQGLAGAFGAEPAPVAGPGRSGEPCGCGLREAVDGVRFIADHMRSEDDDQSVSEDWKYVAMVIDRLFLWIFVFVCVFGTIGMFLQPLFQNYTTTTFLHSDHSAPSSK

Structure (SMILES) | Ki (α4β2 nAChR Subtype; read-out: Rat α4β2 Ki) [nM] | Ki (Human α4β2) [nM] | inhibition at 5 µM (α7 nAChR Subtype) [%] | Ki (α7 nAChR Subtype) [nM] | Ki (α7 nAChR Subtype; [1]) [nM] | Ki (α4β2 nAChR Subtype; Rat α4β2 Ki) [nM]
COCCNC(=O)C1CC2CNCC(C2)C1 (stereo not drawn) [N-(2-methoxyethyl)-3-azabicyclo[3.3.1]nonane-7-carboxamide] | 457 | 774 | < 50 | – | – | –
O=C(C1C[C@H]2CNC[C@H]2C1)N1CC=CCC1 (mixture of isomers) [(3-azabicyclo[3.3.0]oct-7-yl)(2,3,6-trihydropyridin-1-yl)methanone] | 46.3 | 28.4 | < 50 | – | – | –
NC(=O)C1C[C@H]2CNC[C@H]2C1 (mixture of isomers) [3-azabicyclo[3.3.0]octane-7-carboxamide] | 394 | 320 | – | 8280 | – | –
O=C(C1C[C@H]2CNC[C@H]2C1)N1CCCCO1 (mixture of isomers) [(3-azabicyclo[3.3.0]oct-7-yl)(1-oxazinan-2-yl)methanone] | 17.4 | 5.5 | – | – | ≥ 10000 | –
O=C(NC1CC=CC1)C1CC2CNCC(C2)C1 (stereo not drawn) [N-(3-cyclopentenyl)-3-azabicyclo[3.3.1]nonane-7-carboxamide] | 45.3 | 24.3 | < 50 | – | – | –
O=C(OCCF)C1C[C@H]2CNC[C@H]2C1 (mixture of isomers) [2-fluoroethyl 3-azabicyclo[3.3.0]octane-7-carboxylate] | 55.1 | 102 | < 50 | – | – | –
O=C(NC1CCCC1)C1CC2CNCC(C2)C1 (stereo not drawn) [N-cyclopentyl-3-azabicyclo[3.3.1]nonane-7-carboxamide] | 102 | 26.8 | < 50 | – | – | –
O=C(OCc1ccoc1)C1C[C@H]2CNC[C@H]2C1 (mixture of isomers) [(furan-3-yl)methyl 3-azabicyclo[3.3.0]octane-7-carboxylate] | 19.6 | 16.3 | < 50 | – | – | –
CCNC(=O)C1CC2CNCC(C2)C1 (stereo not drawn) [N-ethyl-3-azabicyclo[3.3.1]nonane-7-carboxamide] | 13.5 | 6.4 | < 50 | – | – | –
O=C(NCC1CC1)C1CC2CNCC(C2)C1 (stereo not drawn) [N-(cyclopropylmethyl)-3-azabicyclo[3.3.1]nonane-7-carboxamide] | 69.1 | 92.2 | < 50 | – | – | –
O=C(NC1CCC1)C1CC2CNCC(C2)C1 (stereo not drawn) [N-(cyclobutyl)-3-azabicyclo[3.3.1]nonane-7-carboxamide] | 135 | 308 | < 50 | – | – | –
O=C(OC1CCCC1)C1C[C@H]2CNC[C@H]2C1 (mixture of isomers) [cyclopentyl 3-azabicyclo[3.3.0]octane-7-carboxylate] | 26.6 | 13.9 | < 50 | – | – | –
CNC(=O)C1C[C@H]2CNC[C@H]2C1 (mixture of isomers) [N-methyl-3-azabicyclo[3.3.0]octane-7-carboxamide] | 81.4 | 185 | – | 27300 | – | –
O=C(NC1CC1)C1CC2CNCC(C2)C1 (stereo not drawn) [N-cyclopropyl-3-azabicyclo[3.3.1]nonane-7-carboxamide] | 707 | 15.6 | < 50 | – | – | –
O=C(NCCCF)C1CC2CNCC(C2)C1 (stereo not drawn) [N-(3-fluoropropyl)-3-azabicyclo[3.3.1]nonane-7-carboxamide] | 44.7 | 23.2 | < 50 | – | – | –
CC(=O)C1C[C@H]2CNC[C@H]2C1 (mixture of isomers) [1-(3-azabicyclo[3.3.0]oct-7-yl)-1-ethanone] | 7.3 | 10.7 | – | – | > 10000 | –
CC(C)CC(=O)C1C[C@H]2CNC[C@H]2C1 (mixture of isomers) [1-(3-azabicyclo[3.3.0]oct-7-yl)-3-methyl-1-butanone] | 27.3 | 4.6 | < 50 | – | – | –
O=C(NCC(F)(F)F)C1CC2CNCC(C2)C1 (stereo not drawn) [N-(2,2,2-trifiuoroethyl)-3-azabicyclo[3.3.1]nonane-7-carboxamide] | 40.8 | 22.8 | – | – | > 10000 | –
O=C(NCc1ccco1)C1C[C@H]2CNC[C@H]2C1 (mixture of isomers) [N-(2-furanylmethyl)-3-azabicyclo[3.3.0]octane-7-carboxamide] | – | 302 | – | 74900 | – | 272
C#CCC(C)OC(=O)C1C[C@H]2CNC[C@H]2C1 (mixture of isomers) [pent-4-yn-2-yl 3-azabicyclo[3.3.0]octane-7-carboxylate] | 144 | 68.7 | < 50 | – | – | –
O=C(C1CCCC1)C1C[C@H]2CNC[C@H]2C1 (mixture of isomers) [cyclopentyl(3-azabicyclo[3.3.0]oct-7-yl)methanone] | 15.9 | 7.5 | < 50 | – | – | –
O=C(Nc1ccc(F)cc1)C1CC2CNCC(C2)C1 (stereo not drawn) [N-(4-fluorophenyl)-3-azabicyclo[3.3.1]nonane-7-carboxamide] | 92.2 | 32.1 | < 50 | – | – | –

Structure (SMILES) | Ki (α4β2 nAChR Subtype; read-out: Rat α4β2 Ki) [nM] | Ki (Human α4β2) [nM] | inhibition at 5 µM (α7 nAChR Subtype) [%] | Ki (α7 nAChR Subtype) [nM] | Ki (α7 nAChR Subtype; [1]) [nM] | Ki (α4β2 nAChR Subtype; Rat α4β2 Ki) [nM]
C=CCNC(=O)C1C[C@H]2CNC[C@H]2C1 (mixture of isomers) [N-allyl-3-azabicyclo[3.3.0]octane-7-carboxamide] | 419 | 176 | – | ≥ 10000 | – | –
O=C(OCC1CC1)C1C[C@H]2CNC[C@H]2C1 (mixture of isomers) [cyclopropylmethyl 3-azabicyclo[3.3.0]octane-7-carboxylate] | – | 40.3 | – | > 10000 | – | 62.1
C/C=C/C(=O)C1C[C@H]2CNC[C@H]2C1 (stereo partly drawn) [trans-1-(3-azabicyclo[3.3.0]oct-7-yl)-2-buten-1-one] | – | 29.7 | – | > 10000 | – | 15.4
C#CCN(C)C(=O)C1C[C@H]2CNC[C@H]2C1 (stereo partly drawn) [N-methyl-N-prapargyl-3-azabicyclo[3.3.0]octane-7-carboxamide] | 139 | 52.5 | – | ≥ 10000 | – | –
O=C(C1C[C@H]2CNC[C@H]2C1)N1CCC[C@@H]1CO (mixture of isomers) [(R)-(2-(hydroxymethyl)-1-pyrrolidinyl)(3-azabicyclo[3.3.0]oct-7-yl)methanone] | 387 | 255 | < 50 | – | – | –
O=C(OC1CCOCC1)C1C[C@H]2CNC[C@H]2C1 (mixture of isomers) [tetrahydropyran-4-yl 3-azabicyclo[3.3.0]octane-7-carboxylate] | 68.5 | 146 | < 50 | – | – | –
O=C(C1CC2CNCC(C2)C1)N1CCOCC1 (stereo not drawn) [4-morpholinyl(3-azabicyclo[3.3.1]non-7-yl)methanone] | 62.5 | 22.5 | < 50 | – | – | –
O=C(OCC1CCOC1)C1C[C@H]2CNC[C@H]2C1 (mixture of isomers) [(tetrahydrofuran-3-yl)methyl 3-azabicyclo[3.3.0]octane-7-carboxylate] | 111 | 47.7 | < 50 | – | – | –
CCC(C)C(=O)C1C[C@H]2CNC[C@H]2C1 (mixture of isomers) [1-(3-azabicyclo[3.3.0]oct-7-yl)-2-methyl-1-butanone] | 11.1 | 3.3 | < 50 | – | – | –
CN(C)C(=O)C1CC2CNCC(C2)C1 (stereo not drawn) [N,N-dimethyl-3-azabicyclo[3.3.1]nonane-7-carboxamide] | – | 54 | – | > 10000 | – | 78
CCC(C)NC(=O)C1CC2CNCC(C2)C1 (stereo not drawn) [N-sec-butyl-3-azabicyclo[3.3.1]nonane-7-carboxamide] | 272 | 42.8 | – | – | > 10000 | –
CC1COCC(C)N1C(=O)C1C[C@H]2CNC[C@H]2C1 (stereo partly drawn) [(3-azabicyclo[3.3.0]oct-7-yl)(2,6-dimethylmorpholin-1-yl)methanone] | 57.5 | 71.1 | < 50 | – | – | –
O=C(OC1CCOC1)C1C[C@H]2CNC[C@H]2C1 (stereo partly drawn) [tetrahydrofuran-3-yl 3-azabicyolo[3.3.0]octane-7-carboxylate] | 129 | 120 | – | > 10000 | – | –
O=C(c1ccc(F)cc1)C1C[C@H]2CNC[C@H]2C1 (mixture of isomers) [4-fluorophenyl(3-azabicyclo[3.3.0]oct-7-yl)methanone] | 321 | 134 | < 50 | – | – | –
O=C(c1ccncc1)C1C[C@H]2CNC[C@H]2C1 (mixture of isomers) [pyridin-4-yl(3-azabicyclo[3.3.0]oct-7-yl)methanone] | 43 | 36.4 | < 50 | – | – | –
O=C(Nc1ccccc1F)C1CC2CNCC(C2)C1 (stereo not drawn) [N-(2-fluorophenyl)-3-azabicyclo[3.3.1]nonane-7-carboxamide] | 63 | 24.1 | < 50 | – | – | –
NC(=O)C1CC2CNCC(C2)C1 (stereo not drawn) [3-azabicyclo[3.3.1]nonane-7-carboxamide] | 40.5 | 76.9 | – | > 10000 | – | –
O=C(c1ccco1)[C@H]1C[C@H]2CNC[C@H]2C1 [cis-2-furanyl(3-azabicyclo[3.3.0]oct-7-yl)methanone] | – | 13.2 | < 50 | – | – | 11
CN(C)C(=O)[C@@H]1C[C@H]2CNC[C@H]2C1 [trans-N,N-dimethyl-3-azabicyclo[3.3.0]octane-7-carboxamide] | – | 114 | < 50 | – | – | 28.7
O=C(OC1CC=CC1)C1C[C@H]2CNC[C@H]2C1 (mixture of isomers) [cyclopent-3-en-1-yl 3-azabicyclo[3.3.0]octane-7-carboxylate] | 59.3 | 22.5 | – | – | > 10000 | –
O=C(NCc1ccccc1)C1CC2CNCC(C2)C1 (stereo not drawn) [N-benzyl-3-azabicyclo[3.3.1]nonane-7-carboxamide] | 885 | 9 | < 50 | – | – | –

From patent US20100173968A1, “SUB-TYPE SELECTIVE AZABICYCLOALKANE DERIVATIVES” (TARGACEPT, INC., priority 2007, published 2010)
